≈ marks a conversion by molar mass, not a printed value.
Assays:
[1] = biological target: sucrase (Rattus norvegicus, UniProt P23739); experiment: In vitro sucrase inhibition (rat intestinal mucosa α-glucosidase, glucose assay kit)
From the text: (§2) The α-Glucosidase preparation and inhibitory activity evaluation followed established laboratory protocols [41]. After overnight fasting, rats were humanely euthanized according to approved ethical guidelines. Small intestinal segments were immediately excised and placed on ice to preserve enzymatic activity. Following longitudinal dissection, the luminal surface was rinsed three times with pre-chilled PBS (0.1 M, pH 7.4), and mucosa was scraped using sterile slides. The mucosal tissue was subsequently dissolved in cold PBS (1:5 m/v), centrifuged (8000 rpm, 4 °C, 4 min), and the supernatant was snap-frozen in liquid nitrogen for storage at −80 °C.
(§3) After shaking, 50 μL of maltase (11.32 U/mL) or sucrase (15.26 U/mL) was added and incubated at 37 °C for 20 min with oscillation. Reactions were terminated by heating at 95 °C for 15 min. Glucose production was quantified using a glucose assay kit, and IC50 values were calculated with GraphPad Prism 9.5.1.

[2] = biological target: maltase; experiment: In vitro maltase inhibition (rat intestinal mucosa α-glucosidase, glucose assay kit); conditions: for IC50 on maltase: Figure 4C, same IC50 in mass units, in brackets; for IC50: read-out: IC50 against maltase, Figure 4
From the text: as §2, §3

[3] = system: diabetic mice; experiment: Sucrose tolerance test, PBG detection in alloxan-induced diabetic mice; format: in vivo; conditions: sucrose 3 g/kg oral, acarbose 6 mg/kg
Procedure: (§1) PBG detection in diabetic mice adhered to the protocol previously established by our group. After 12-h fasting, hyperglycemia was induced by tail vein injection of alloxan at a dose of 60 mg/kg. Fasting blood glucose was measured 72 h post-induction. Mice with blood glucose levels of 180–360 mg/dL were considered diabetic and randomized into five groups (n = 8/group): Model (sucrose 3 g/kg); […] SP-10 L (sucrose 3 g/kg + SP-10 5 mg/kg); SP-10 M (sucrose 3 g/kg + SP-10 10 mg/kg) and SP-10 H (sucrose 3 g/kg + SP-10 20 mg/kg). Blood glucose was measured pre-gavage and at 30, 60, and 120 min post-gavage. Data was recorded and analyzed for PBG and AUC using Graphpad Prism 9.5.1. Maltose and starch experiments used identical designs.

[4] = system: diabetic mice; experiment: Maltose tolerance test, PBG detection in alloxan-induced diabetic mice; format: in vivo; conditions: maltose 3 g/kg oral, compared to model group
Procedure: as §1

[5] = system: diabetic mice; experiment: Starch tolerance test, PBG detection in alloxan-induced diabetic mice; format: in vivo; conditions: starch 3 g/kg oral, acarbose 6 mg/kg, compared to model group
Procedure: as §1

[6] = IC50 against sucrase, Figure 4, sucrose 50 mmol/L, 37 °C, 20 min
[7] = IC50 on sucrase, Figure 4D, same IC50 in mass units, in brackets
[8] = maltose 1 mmol/L, 37 °C, 20 min
[9] = SP-10 10 and 20 mg/kg, compared to model group

sucrase, sequence (P23739 whole entry): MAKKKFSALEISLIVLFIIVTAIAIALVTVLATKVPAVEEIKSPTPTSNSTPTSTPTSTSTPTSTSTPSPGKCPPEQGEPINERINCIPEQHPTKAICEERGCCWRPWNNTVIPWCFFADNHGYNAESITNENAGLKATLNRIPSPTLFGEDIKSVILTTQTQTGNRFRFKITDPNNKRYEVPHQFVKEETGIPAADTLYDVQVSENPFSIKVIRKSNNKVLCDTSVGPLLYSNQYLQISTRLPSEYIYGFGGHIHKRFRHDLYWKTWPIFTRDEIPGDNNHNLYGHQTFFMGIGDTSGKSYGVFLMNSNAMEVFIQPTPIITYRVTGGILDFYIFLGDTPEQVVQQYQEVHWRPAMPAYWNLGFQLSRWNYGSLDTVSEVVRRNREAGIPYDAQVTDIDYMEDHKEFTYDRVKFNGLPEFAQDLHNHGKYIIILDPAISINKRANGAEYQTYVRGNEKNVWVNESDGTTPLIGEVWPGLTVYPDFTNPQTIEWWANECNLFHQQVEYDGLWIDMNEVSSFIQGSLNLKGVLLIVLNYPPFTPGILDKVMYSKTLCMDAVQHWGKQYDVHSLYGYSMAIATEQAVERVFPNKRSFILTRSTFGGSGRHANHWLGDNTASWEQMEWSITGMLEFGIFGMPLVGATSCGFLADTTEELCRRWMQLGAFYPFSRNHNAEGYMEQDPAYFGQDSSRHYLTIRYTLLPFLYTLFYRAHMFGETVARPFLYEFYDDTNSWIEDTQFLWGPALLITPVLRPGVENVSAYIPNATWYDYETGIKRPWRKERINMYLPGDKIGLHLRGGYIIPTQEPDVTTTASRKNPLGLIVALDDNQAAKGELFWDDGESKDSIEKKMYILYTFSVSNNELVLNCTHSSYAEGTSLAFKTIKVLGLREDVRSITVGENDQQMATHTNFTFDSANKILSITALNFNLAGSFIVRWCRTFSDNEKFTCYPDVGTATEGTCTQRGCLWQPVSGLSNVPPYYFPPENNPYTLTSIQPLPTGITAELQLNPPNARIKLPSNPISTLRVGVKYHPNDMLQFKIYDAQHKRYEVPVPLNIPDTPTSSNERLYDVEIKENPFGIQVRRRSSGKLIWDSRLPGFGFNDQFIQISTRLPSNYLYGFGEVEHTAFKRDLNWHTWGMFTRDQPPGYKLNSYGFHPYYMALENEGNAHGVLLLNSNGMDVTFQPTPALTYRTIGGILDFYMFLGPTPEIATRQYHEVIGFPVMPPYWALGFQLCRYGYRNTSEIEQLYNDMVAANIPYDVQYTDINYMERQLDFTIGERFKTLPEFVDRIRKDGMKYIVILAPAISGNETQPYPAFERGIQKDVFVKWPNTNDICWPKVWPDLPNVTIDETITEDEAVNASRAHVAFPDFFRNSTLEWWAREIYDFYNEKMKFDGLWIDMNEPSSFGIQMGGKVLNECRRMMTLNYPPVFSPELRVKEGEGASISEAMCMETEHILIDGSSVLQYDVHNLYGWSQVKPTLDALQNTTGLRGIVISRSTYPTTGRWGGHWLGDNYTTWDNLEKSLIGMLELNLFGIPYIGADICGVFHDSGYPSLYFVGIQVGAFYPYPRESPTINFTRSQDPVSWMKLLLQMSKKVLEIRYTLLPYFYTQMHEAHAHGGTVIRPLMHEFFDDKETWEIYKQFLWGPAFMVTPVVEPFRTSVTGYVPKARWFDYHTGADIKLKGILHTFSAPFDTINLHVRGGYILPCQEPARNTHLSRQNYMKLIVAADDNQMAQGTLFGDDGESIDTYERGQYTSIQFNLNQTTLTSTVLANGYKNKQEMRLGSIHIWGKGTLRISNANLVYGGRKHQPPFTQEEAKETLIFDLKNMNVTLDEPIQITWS

Structure (SMILES)	IC50 against sucrase, fold higher relative to acarbose [1] [fold]	IC50 [1, 6] [µM]	IC50 [1, 7] [µM]	IC50 on maltase [2] [µg/mL]	IC50 [2, 8] [µM]	Blood glucose AUC (0–120 min) [3, 9]	PBG levels at 30 min [3, 9]	Glycemic levels by 120 min ([3]; SP-10 H 20 mg/kg)	PBG levels at 30 and 60 min ([4]; all three SP-10 groups (5, 10, 20 mg/kg), acarbose 6 mg/kg)	PBG levels at 120 min ([4]; all treatment groups (SP-10 5, 10, 20 mg/kg, acarbose 6 mg/kg))	PBG levels at all measured time points ([5]; SP-10 H 20 mg/kg)	AUC levels (0–120 min) ([5]; SP-10 M 10 mg/kg and SP-10 H 20 mg/kg)	IC50 for maltase inhibition ([2]; Figure 1, maltose 1 mmol/L, 37 °C, 20 min) [µg/mL]
O=C(/C=C/c1ccc(O)c(O)c1)O[C@@H]1C[C@](O)(C(=O)O)C[C@@H](O)[C@H]1O [CGA, chlorogenic acid]	210	126	126	40.60 (≈ 115 µM)	115								
O=C(C=Cc1ccc(O)c(O)c1)OC1C(O)CC(O)(C(=O)O)CC1O (centres unmarked) [CCGA, cryptochlorogenic acid]		110	110	38.47 (≈ 109 µM)	109								
C[C@H]1O[C@H](O[C@H]2[C@H](O)[C@@H](O)[C@@H](O[C@H]3[C@H](O)[C@@H](O)C(O)O[C@@H]3CO)O[C@@H]2CO)[C@H](O)[C@@H](O)[C@@H]1N[C@H]1C=C(CO)[C@@H](O)[C@H](O)[C@H]1O (some centres unmarked) [acarbose, Acarbose]					0.26	significantly lower	significant attenuation	restored glycemic levels to preprandial values	lower PBG levels at 30 and 60 min, although these differences were not statistically significant	statistically significant reductions	significantly reduced	markedly decreased	0.168
O=C(C=Cc1ccc(O)c(O)c1)OC1CC(O)(C(=O)O)CC(O)C1O (centres unmarked) [NCGA, neochlorogenic acid]	215	130	129	31.07 (≈ 87.7 µM)	87.7								

Reference: publication PMC12388904, “Hypoglycemic Effects of Silphium perfoliatum L. In Vitro and In Vivo and Its Active Composition Identification by UPLC-Triple-TOF-MS/MS” (Pharmaceuticals, 2025)
